Measurements reported in PubChem BioAssay (NCI).
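Cultured in 96-well plates, cells were exposed to test compound for 48 hours across five concentrations. GI50 is the concentration that inhibits growth by half. At the TGI there is no net growth.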

How the values were obtained:
Assay in all cases: NCI tumour cell line growth inhibition, 48 h
[1] = tested on: CAKI-1 renal
[2] = tested on: BT-549 breast
[3] = tested on: HCC-2998 colon
[4] = tested on: SF-268 CNS
[5] = tested on: SK-OV-3 ovarian
[6] = tested on: NCI-H226 lung
[7] = tested on: A549 NSCLC
[8] = tested on: HT29 colon
[9] = tested on: MDA-MB-231 breast
[10] = tested on: ACHN renal
[11] = tested on: MDA-MB-435
[12] = tested on: SN12C renal
[13] = tested on: NCI-H522 lung
[14] = tested on: 786-0 renal
[15] = tested on: TK-10 renal
[16] = tested on: HS 578T breast
[17] = tested on: HOP-92 NSCLC
[18] = tested on: NCI-H23 lung
[19] = tested on: MOLT-4 leukemia
[20] = tested on: SNB-75 CNS
[21] = tested on: SNB-19 CNS
[22] = tested on: HOP-62 NSCLC
[23] = tested on: HCT-15 colon
[24] = tested on: UACC-257 melanoma
[25] = tested on: OVCAR-3 ovarian
[26] = tested on: DU-145 prostate
[27] = tested on: IGROV1 ovarian
[28] = tested on: NCI-H460 lung
[29] = tested on: SW-620 colon
[30] = tested on: KM12 colon
[31] = tested on: UACC-62 melanoma
[32] = tested on: U251 CNS
[33] = tested on: HCT-116 colon
[34] = tested on: HL-60(TB) leukemia
[35] = tested on: EKVX NSCLC
[36] = tested on: OVCAR-4 ovarian
[37] = tested on: PC-3 prostate
[38] = tested on: T-47D breast
[39] = tested on: SK-MEL-5 melanoma
[40] = tested on: SF-539 CNS
[41] = tested on: SF-295 CNS
[42] = tested on: RXF 393 renal
[43] = tested on: K-562 leukemia
[44] = tested on: A498 renal
[45] = tested on: M14 melanoma
[46] = tested on: OVCAR-8 ovarian
[47] = tested on: UO-31 renal
[48] = tested on: COLO 205 colon
[49] = tested on: MCF7 breast
[50] = tested on: NCI/ADR-RES ovarian
[51] = tested on: OVCAR-5 ovarian
[52] = tested on: SK-MEL-28 melanoma
[53] = tested on: SK-MEL-2 melanoma
[54] = tested on: CCRF-CEM leukemia
[55] = tested on: RPMI-8226 leukemia
[56] = tested on: LOX IMVI melanoma
[57] = tested on: SR leukemia
[58] = tested on: MALME-3M melanoma

`COc1cc(-c2nn(-c3ccc(NC(=O)Nc4cc(C(F)(F)F)cc(C(F)(F)F)c4)cc3)cc2-c2ccncc2)ccc1Cl` gave a GI50 [1] of 1.97 µM, a TGI [1] of 6.73 µM and a GI50 [2] of 2.61 µM. For the same compound, the TGI [2] was 6.03 µM, the GI50 [3] was 2.21 µM and the TGI [3] was 5.38 µM. It also gave a GI50 [4] of 2.47 µM, a TGI [4] of 7.3 µM and a GI50 [5] of 1.55 µM. It also gave a TGI [5] of 3.09 µM, a GI50 [6] of 1.92 µM and a TGI [6] of 4.84 µM. For the same compound, the GI50 [7] was 2.47 µM, the TGI [7] was 13 µM and the GI50 [8] was 3.31 µM. It also gave a TGI [8] of 12.3 µM, a GI50 [9] of 1.64 µM and a TGI [9] of 3.34 µM. It also gave a GI50 [10] of 1.94 µM, a TGI [10] of 7.86 µM and a GI50 [11] of 1.88 µM. For the same compound, the TGI [11] was 3.99 µM, the GI50 [12] was 1.71 µM and the TGI [12] was 4.21 µM. For the same compound, the GI50 [13] was 2.25 µM, the TGI [13] was 5.99 µM and the GI50 [14] was 2.48 µM. It also gave a TGI [14] of 6.39 µM, a GI50 [15] of 3.13 µM and a TGI [15] of 9.3 µM. For the same compound, the GI50 [16] was 2.94 µM, the TGI [16] was > 100 µM and the GI50 [17] was 1.07 µM. The TGI [17] was 4.32 µM, the GI50 [18] was 2.01 µM and the TGI [18] was 5.56 µM. The GI50 [19] was 3.28 µM, the TGI [19] was > 100 µM and the GI50 [20] was 1.99 µM. For the same compound, the TGI [20] was 5.35 µM, the GI50 [21] was 1.8 µM and the TGI [21] was 3.88 µM. The GI50 [22] was 1.51 µM, the TGI [22] was 3.1 µM and the GI50 [23] was 1.58 µM. The TGI [23] was 4.01 µM, the GI50 [24] was 2.3 µM and the TGI [24] was 7.73 µM. It also gave a GI50 [25] of 1.46 µM, a TGI [25] of 3.88 µM and a GI50 [26] of 3.39 µM. It also gave a TGI [26] of 11.2 µM, a GI50 [27] of 2.65 µM and a TGI [27] of 8.25 µM. The GI50 [28] was 1.75 µM, the TGI [28] was 3.88 µM and the GI50 [29] was 1.87 µM. The TGI [29] was 3.84 µM, the GI50 [30] was 1.34 µM and the TGI [30] was 3.09 µM. The GI50 [31] was 1.55 µM, the TGI [31] was 3.4 µM and the GI50 [32] was 1.8 µM. It also gave a TGI [32] of 4.52 µM, a GI50 [33] of 1.65 µM and a TGI [33] of 3.39 µM. For the same compound, the GI50 [34] was 3.04 µM, the TGI [34] was > 100 µM and the GI50 [35] was 1.43 µM. The TGI [35] was 3.48 µM, the GI50 [36] was 2.78 µM and the TGI [36] was 9.43 µM. For the same compound, the GI50 [37] was 1.2 µM, the TGI [37] was 10.8 µM and the GI50 [38] was 1.96 µM. It also gave a TGI [38] of 7.77 µM, a GI50 [39] of 1.53 µM and a TGI [39] of 2.98 µM. For the same compound, the GI50 [40] was 1.64 µM, the TGI [40] was 3.71 µM and the GI50 [41] was 1.1 µM. The TGI [41] was 2.63 µM, the GI50 [42] was 1.61 µM and the TGI [42] was 3.58 µM. The GI50 [43] was 2.48 µM, the TGI [43] was > 100 µM and the GI50 [44] was 1.81 µM. It also gave a TGI [44] of 3.79 µM, a GI50 [45] of 1.99 µM and a TGI [45] of 4.23 µM. The GI50 [46] was 2.48 µM, the TGI [46] was 27.8 µM and the GI50 [47] was 1.34 µM. It also gave a TGI [47] of 3.22 µM, a GI50 [48] of 1.6 µM and a TGI [48] of 3.32 µM. It also gave a GI50 [49] of 2.84 µM, a TGI [49] of 8.98 µM and a GI50 [50] of 2 µM. It also gave a TGI [50] of 7.38 µM, a GI50 [51] of 1.91 µM and a TGI [51] of 5.16 µM. For the same compound, the GI50 [52] was 1.93 µM, the TGI [52] was 3.74 µM and the GI50 [53] was 1.7 µM. The TGI [53] was 3.43 µM, the GI50 [54] was 2.13 µM and the TGI [54] was > 100 µM.
Compound `Oc1ccc2c(=S)cc(-c3ccc(Br)cc3)oc2c1O` has a GI50 [1] of 2.65 µM, a TGI [1] of 15.5 µM and a GI50 [2] of 2.19 µM. For the same compound, the TGI [2] was 14.6 µM, the GI50 [3] was 2.28 µM and the TGI [3] was 7.03 µM. The GI50 [4] was 2.18 µM, the TGI [4] was > 100 µM and the GI50 [5] was 2.6 µM. For the same compound, the TGI [5] was 8.5 µM, the GI50 [6] was 7.22 µM and the TGI [6] was 39.4 µM. For the same compound, the GI50 [7] was 3.26 µM, the GI50 [55] was 1.32 µM and the TGI [55] was 18.3 µM. It also gave a GI50 [8] of 4.56 µM, a TGI [8] of 25.9 µM and a GI50 [9] of 1.81 µM. For the same compound, the TGI [9] was 8.4 µM, the GI50 [10] was 2.35 µM and the TGI [10] was 11.8 µM. The GI50 [11] was 2.98 µM, the TGI [11] was > 100 µM and the GI50 [12] was 2.61 µM. The TGI [12] was 12.3 µM, the GI50 [13] was 1.16 µM and the TGI [13] was 3.88 µM. The GI50 [14] was 2.89 µM, the TGI [14] was 11.1 µM and the GI50 [15] was 4.16 µM. The TGI [15] was 14.7 µM, the GI50 [16] was 6.69 µM and the TGI [16] was > 100 µM. It also gave a GI50 [17] of 1.69 µM, a TGI [17] of 6.11 µM and a GI50 [18] of 1.52 µM. It also gave a TGI [18] of 6.38 µM, a GI50 [19] of 2.16 µM and a TGI [19] of 6.77 µM. For the same compound, the GI50 [20] was 4.56 µM, the TGI [20] was > 100 µM and the GI50 [21] was 2.95 µM. For the same compound, the TGI [21] was > 100 µM, the GI50 [22] was 1.5 µM and the TGI [22] was 6.73 µM. For the same compound, the GI50 [23] was 0.853 µM, the TGI [23] was 12.1 µM and the GI50 [24] was 2.88 µM. The TGI [24] was 8.25 µM, the GI50 [26] was 2.67 µM and the TGI [26] was > 100 µM. It also gave a GI50 [27] of 2.56 µM, a TGI [27] of 9.96 µM and a GI50 [28] of 0.973 µM. The TGI [28] was 19 µM, the GI50 [29] was 2.6 µM and the TGI [29] was 21.6 µM. It also gave a GI50 [30] of 3.35 µM, a TGI [30] of 25.6 µM and a GI50 [31] of 2.09 µM. For the same compound, the TGI [31] was 4.85 µM, the GI50 [32] was 2.44 µM and the TGI [32] was 8.93 µM. For the same compound, the GI50 [33] was 2.22 µM, the TGI [33] was 9.73 µM and the GI50 [34] was 1.66 µM. The TGI [34] was 6.24 µM, the GI50 [35] was 17.9 µM and the TGI [35] was 56.6 µM. The GI50 [36] was 2.03 µM, the TGI [36] was > 100 µM and the GI50 [56] was 1.18 µM. The TGI [56] was 3.87 µM, the GI50 [37] was 2.92 µM and the TGI [37] was 17.1 µM. It also gave a GI50 [38] of 1.27 µM, a TGI [38] of 5.15 µM and a GI50 [57] of 2.54 µM. The TGI [57] was 38.1 µM, the GI50 [39] was 1.79 µM and the TGI [39] was 3.95 µM. The GI50 [40] was 1.98 µM, the TGI [40] was 7.28 µM and the GI50 [41] was 4.01 µM. The TGI [41] was 29.8 µM, the GI50 [42] was 2.51 µM and the TGI [42] was 8.78 µM. For the same compound, the GI50 [43] was 2.47 µM, the TGI [43] was > 100 µM and the GI50 [44] was 2.15 µM. For the same compound, the TGI [44] was 7.46 µM, the GI50 [45] was 2.01 µM and the TGI [45] was 6.56 µM. The GI50 [46] was 2.28 µM, the TGI [46] was 8.92 µM and the GI50 [47] was 1.02 µM. For the same compound, the TGI [47] was 6.66 µM, the GI50 [48] was 10.7 µM and the TGI [48] was 24.5 µM. It also gave a GI50 [50] of 1.43 µM, a TGI [50] of 6.05 µM and a GI50 [51] of 5.83 µM. It also gave a TGI [51] of 78 µM, a GI50 [58] of 1.87 µM and a TGI [58] of 6.06 µM. It also gave a GI50 [52] of 2.94 µM, a TGI [52] of 28.7 µM and a GI50 [53] of 2.27 µM. The TGI [53] was 6.76 µM, the GI50 [54] was 2.53 µM and the TGI [54] was 8.03 µM.
